# Columns and labels:
# [1] = test system: male Wistar rats, DNBS challenge; experiment: DNBS-induced distal colitis, animal model for inflammatory bowel disease; format: in vivo; conditions: sc once a day for 6 days, 0.2 or 2.0 mg/animal/day, 25-30% decrease considered significant
# Protocol: The capacity of androst-5-ene-3β,7β,16α,17β-tetrol (3β-tetrol) to limit or inhibit inflammation or symptoms of inflammation is shown using an animal model for inflammatory bowel disease using the following protocol.
# Groups of 3 male Wistar rats (180±20 grams) fasted for 24 hours before 2,4-dinitrobenzene sulfonic acid (DNBS) or saline challenge are used. Distal colitis is induced by intra-colonic instillation of 0.5 mL of an ethanolic solution of DNBS (30 mg in 0.5 mL of a 30% ethanol in saline solution) after which 2 mL of air was injected through the cannula to ensure that the solution remained in the colon. The volume used was 0.1 mL per injection of 2 and 20 mg/mL of compound such as androst-5-ene-3β,7β,17β-triol or 3β-tetrol in a liquid formulation, which was administered by subcutaneous injection once a day for 6 days (0.2 mg/animal/day or 2.0 mg/animal/day). The formulation contains […] of compound. Concentrations of 2 mg/mL and 20 mg/mL are obtained by […] with vehicle that lacked compound.
# The first dose is given 30 minutes after DNBS challenge. […] The presence of diarrhea is recorded daily by examining the anal area. […] Before removal of the colon, signs of adhesion between the colon and other organs are recorded. […]
# [2] = test system: 8 week old db/db diabetic mice; experiment: Hyperinsulinemic-euglycemic clamp, glucose lowering in db/db diabetic mice; format: in vivo; conditions: for glucose uptake in white vastus muscle / augmenting muscle glucose uptake in the gastrocnemius muscle: 14C-2-deoxyglucose during clamp; for glucose uptake in white vastus muscle: non oxidative muscle group; for augmenting muscle glucose uptake in the gastrocnemius muscle: p<0.05; for glucose infusion rate compared to the vehicle control: db/db mice, po bid 13 days, qd day 14, clamp on day 14, insulin 10 mU/kg/min
# Protocol: Glucose lowering in 8 week old db/db diabetic mice: The hyperinsulinemic-euglycemic clamp protocol was conducted to measure insulin sensitivity in vivo. In this procedure, insulin was administered to raise the insulin concentration while glucose was infused to maintain euglycemia or a fixed, normal blood glucose level (about 180 mg/dL). […] The objective of this protocol was to investigate characterize the capacity of 17α-ethynylandrost-5-ene-3β,7β,17β-triol and androst-5-ene-3β,7β,16α,17β-tetrol to ameliorate systemic insulin resistance and improve whole body glucose disposal in the hyperinsulinemic-euglycemic clamp model. The degree of skeletal muscle and hepatic insulin sensitivity and tissue specific glucose uptake were also assessed. The animals were dosed daily by oral gavage for 14 days. On Day 10 of treatment catheters were implanted in the carotid artery and jugular vein. On the day of the clamp (day 14) the compound was administered at 7:30 am.
# Body weight and glucose concentration were assessed on day 0, 7 and day 14 of treatment. On day 14 a euglycemic-hyperinsulinemic clamp was performed. Food was removed at 7:30 am and at 10:30 a primed continuous infusion of [3-^3H]-glucose (0.05 μCi/min) was administered. A baseline blood sample was taken at 12:50 (−10 min) and at 1:00 (0 min) a euglycemic-hyperinsulinemic clamp was initiated by administering 10 mU/kg/min of insulin. Glucose was infused at a variable rate to clamp the glucose concentration at about 180 mg/dl. A bolus of [^14C]-2deoxyglucose was given at the end of the study to assess tissue specific glucose uptake. Plasma ^14C 2-deoxyglucose was assessed at 122, 125, 130, 135, 145 min. The animals were then anesthetized with an intravenous infusion of sodium pentobarbital and selected tissues were removed, immediately frozen in liquid nitrogen and stored at −70° C. until analysis.
# Analysis was conducted as follows. Plasma samples were deproteinized with Ba(OH)2 (0.3 N) and ZnSO4 (0.3 N), dried and radioactivity was assessed on scintillation counter (Packard TRICARB 2900 TR, Meriden, Conn.). Frozen tissue samples were homogenized in 0.5% perchloric acid, centrifuged and neutralized. One supernatant was directly counted to determine radioactivity from both [14C] DG and DGP. A second aliquot was treated with Ba(OH)2 and ZnSO4 to remove ^14C DGP and any tracer incorporated into glycogen and then counted to determine radioactivity from free [^14C]DG(2). [^14C]DGP was calculated as the difference between the two aliquots. The accumulation of [^14C]DGP was normalized to tissue weight and tracer bolus. Rg, an index of tissue specific glucose uptake was calculated as previously described (E. W. Kraegen et al., Am. J. Physiol., 248: E353-E362 (1985)). Whole body glucose turnover was calculated as the ratio of the ^3H glucose infusion rate (dpm/kg/min) and arterial plasma glucose specific activity (dpm/mg). Endogenous glucose production was calculated as the difference between the whole body glucose turnover and the exogenous glucose infusion rate (R. N. Bergman et al., Endocr. Rev., 6:45-86, (1985)).
# osteoprotegerin = experiment: Osteoprotegerin levels in dexamethasone-treated mice; format: in vivo; conditions: mice treated with vehicle and dexamethasone at 10 μg/day, daily for 23 days (positive control group)
# Protocol: Osteoprotegerin levels in mice that are treated with vehicle and dexamethasone at 10 μg/day (positive control group) typically show 3.3 pMol/L osteoprotegerin, […]
# IL-6 from MG-63 cells = experiment: Inhibition of IL-6 from MG-63 cells; format: cell-based; conditions: Homo sapiens, pilot studies
# From the text: (§1) The capacity of 5-androstene-3β,7β,17β-triol, androst-5-ene-3β,7β,16α,17β-tetrol (3β-tetrol) and other compounds to reverse adverse effects of glucocorticoids in bone growth was shown in the human MG-63 osteosarcoma cell line. MG-63 cells are osteoblasts, which are cells that mediate bone growth. This cell line has been used extensively to study bone biology and to characterize the biological activity of compounds for treatment of bone loss conditions (e.g., B. D. Boyan et al., J. Biol. Chem., 264(20):11879-11886 (1989); L. C. Hofbauer et al., Endocrinology, 140(10):4382-4389 (1999)). Adverse toxicities associated with elevated glucocorticoid levels include a […] in the production of IL-6 and IL-8 by osteoblasts, including the MG-63 cell line, and an increase in the expression of the 11β-hydroxysteroid dehydrogenase type 1 enzyme (11β-HSD). Increased 11β-hydroxysteroid dehydrogenase type 1 enzyme results in increased levels of endogenous glucocorticoid activity by converting endogenous cortisone to the active cortisol, which inhibits bone growth. The 11β-HSD enzyme is expressed in liver, adipose tissue, brain and bone tissues. Cortisol generated by 11β-HSD-1 contributes to osteoporosis, insulin resistance, type 2 diabetes, dyslipidemia, obesity, central nervous system disorders such as stroke, neuron death, depression and Parkinson Disease. […]
# estrogen receptor-β = estrogen receptor-β (Homo sapiens, UniProt Q92731); experiment: Interaction with estrogen receptor-β; format: binding
# estrogen receptor-α = estrogen receptor-α (Homo sapiens, UniProt P03372); experiment: Interaction with estrogen receptor-α; format: binding
# androgen receptor = molecular target: T1, androgen receptor (Homo sapiens, UniProt P10275); experiment: Interaction with androgen receptor; format: binding
# T1 sequence (P10275 1-920): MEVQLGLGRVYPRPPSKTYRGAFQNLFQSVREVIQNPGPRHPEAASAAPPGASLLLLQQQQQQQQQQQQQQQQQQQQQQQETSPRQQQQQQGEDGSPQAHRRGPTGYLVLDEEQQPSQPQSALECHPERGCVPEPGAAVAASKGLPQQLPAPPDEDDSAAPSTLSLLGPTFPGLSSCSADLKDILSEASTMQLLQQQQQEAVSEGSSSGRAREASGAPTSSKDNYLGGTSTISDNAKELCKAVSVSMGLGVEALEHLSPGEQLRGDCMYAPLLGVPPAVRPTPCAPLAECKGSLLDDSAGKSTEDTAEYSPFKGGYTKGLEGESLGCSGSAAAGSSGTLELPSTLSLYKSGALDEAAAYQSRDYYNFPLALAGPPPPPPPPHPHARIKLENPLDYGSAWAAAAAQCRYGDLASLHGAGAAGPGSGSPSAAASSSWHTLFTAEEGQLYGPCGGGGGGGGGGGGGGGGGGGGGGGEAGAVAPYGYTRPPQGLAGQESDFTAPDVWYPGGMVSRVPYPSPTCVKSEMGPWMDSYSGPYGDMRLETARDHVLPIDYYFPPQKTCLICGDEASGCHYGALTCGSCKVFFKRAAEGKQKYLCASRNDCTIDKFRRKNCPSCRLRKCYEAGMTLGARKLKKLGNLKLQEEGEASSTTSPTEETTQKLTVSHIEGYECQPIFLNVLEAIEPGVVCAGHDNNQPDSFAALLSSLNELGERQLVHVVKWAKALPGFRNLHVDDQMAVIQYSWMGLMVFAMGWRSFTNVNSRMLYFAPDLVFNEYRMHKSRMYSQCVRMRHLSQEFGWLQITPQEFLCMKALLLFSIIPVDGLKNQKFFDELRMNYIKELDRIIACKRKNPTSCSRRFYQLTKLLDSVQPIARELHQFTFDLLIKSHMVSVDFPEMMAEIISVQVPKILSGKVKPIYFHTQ
# MG-63 cells = experiment: Reversal of adverse effects of dexamethasone in MG-63 osteoblasts (incl. osteoprotegerin synthesis); format: cell-based, human
# From the text: as §1
# estrogen receptor-β, sequence (Q92731 whole entry, species assumed): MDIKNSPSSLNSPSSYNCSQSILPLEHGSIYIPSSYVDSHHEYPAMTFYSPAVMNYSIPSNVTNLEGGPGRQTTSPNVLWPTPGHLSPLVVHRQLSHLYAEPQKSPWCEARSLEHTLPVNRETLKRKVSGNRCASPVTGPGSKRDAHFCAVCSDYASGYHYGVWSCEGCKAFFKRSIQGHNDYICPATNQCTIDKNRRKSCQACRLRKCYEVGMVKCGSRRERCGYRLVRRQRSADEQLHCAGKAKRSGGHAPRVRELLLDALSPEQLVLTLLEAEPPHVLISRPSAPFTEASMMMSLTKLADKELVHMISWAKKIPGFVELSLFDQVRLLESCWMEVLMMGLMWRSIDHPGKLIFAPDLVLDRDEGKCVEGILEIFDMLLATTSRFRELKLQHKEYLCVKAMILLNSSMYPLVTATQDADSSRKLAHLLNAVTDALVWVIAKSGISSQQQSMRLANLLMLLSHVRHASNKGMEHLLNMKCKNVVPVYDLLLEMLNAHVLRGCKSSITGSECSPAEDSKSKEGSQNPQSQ
# estrogen receptor-α, sequence (P03372 whole entry): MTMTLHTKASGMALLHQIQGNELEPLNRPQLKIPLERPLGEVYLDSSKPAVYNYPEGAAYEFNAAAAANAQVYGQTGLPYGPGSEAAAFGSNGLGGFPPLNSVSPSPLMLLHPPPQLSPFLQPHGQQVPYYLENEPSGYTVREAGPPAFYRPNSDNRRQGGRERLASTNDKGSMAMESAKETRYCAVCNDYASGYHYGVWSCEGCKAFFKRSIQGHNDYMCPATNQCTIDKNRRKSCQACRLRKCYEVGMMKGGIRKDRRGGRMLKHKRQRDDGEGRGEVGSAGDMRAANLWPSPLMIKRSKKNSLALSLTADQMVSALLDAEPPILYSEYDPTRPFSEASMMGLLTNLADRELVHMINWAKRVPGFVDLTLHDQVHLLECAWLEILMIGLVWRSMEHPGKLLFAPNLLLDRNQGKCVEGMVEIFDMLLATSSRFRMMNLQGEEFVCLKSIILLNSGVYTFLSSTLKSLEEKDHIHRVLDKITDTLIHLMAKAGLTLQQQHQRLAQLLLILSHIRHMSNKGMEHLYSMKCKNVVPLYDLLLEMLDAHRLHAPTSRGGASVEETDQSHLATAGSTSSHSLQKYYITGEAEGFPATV
SMILES,decrease in net colon-to-body weight ratio [1],glucose uptake in white vastus muscle [2],augmenting muscle glucose uptake in the gastrocnemius muscle [2],glucose infusion rate compared to the vehicle control [2],other results
"C[C@]12CC[C@H]3[C@@H]([C@@H](O)C=C4C[C@@H](O)CC[C@@]43C)[C@@H]1CC[C@@H]2O [androst-5-ene-3β,7β,17β-triol, reference compound]",15-20%,,,,
"CN(CCOc1ccc(CC2SC(=O)NC2=O)cc1)c1ccccn1.O=C(O)/C=C\C(=O)O (stereo not drawn) [rosiglitazone, rosiglitazone maleate, reference compound]",,"differences were not detected except between androst-5-ene-3β,7β,16α,17β-tetrol and rosiglitazone",more effective,,
C[C@@H]1C[C@H]2[C@@H]3CCC4=CC(=O)C=C[C@]4(C)[C@@]3(F)[C@@H](O)C[C@]2(C)[C@@]1(O)C(=O)CO [dexamethasone],,,,,osteoprotegerin level (osteoprotegerin): 3.3 pmol/L; IC50 (IL-6 from MG-63 cells): 10 nM
"C#C[C@]1(O)CC[C@H]2[C@@H]3[C@@H](O)C=C4C[C@@H](O)CC[C@]4(C)[C@H]3CC[C@@]21C [17α-ethynylandrost-5-ene-3β,7β,17β-triol, reference compound]",,,,increased,
"C[C@]12CC[C@H]3[C@@H]([C@@H](O)C=C4C[C@@H](O)CC[C@@]43C)[C@@H]1C[C@@H](O)[C@@H]2O [Form 3β-tetrol, androst-5-ene-3β,7β,16α,17β-tetrol]",25-35%,"differences were not detected except between androst-5-ene-3β,7β,16α,17β-tetrol and rosiglitazone",more effective,increased,"interaction with estrogen receptor-β (estrogen receptor-β): does not interact; interaction with estrogen receptor-α (estrogen receptor-α): does not interact; interaction with androgen receptor (androgen receptor): does not interact; concentration giving normal osteoprotegerin levels (MG-63 cells; MG-63 cells, 30 nM dexamethasone): 0.1 µM; reversal of the decrease in osteoprotegerin synthesis by MG-63 cells (MG-63 cells; in the presence of 30 nM dexamethasone): completely or partially reversed"
